pIC50: −log10 of the molar value.

The experiment addresses T1, 5-lipoxygenase-activating protein (FLAP) (Homo sapiens, UniProt P20292).
T1 construct: tissue Biological Speciality Corporation; host or cells: human polymorphonuclear cells (100,000 g membranes)
T1 sequence (P20292 1-161): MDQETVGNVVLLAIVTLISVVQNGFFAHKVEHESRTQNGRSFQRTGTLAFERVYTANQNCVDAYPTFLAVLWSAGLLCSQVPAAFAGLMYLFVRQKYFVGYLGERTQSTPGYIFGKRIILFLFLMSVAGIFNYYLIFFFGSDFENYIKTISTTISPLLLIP
In words: FLAP Binding Assay. The note with it: human polymorphonuclear cell 100,000 g membranes; 3H MK886 or other radioligand; 30 minutes at room temperature. Here is the method:
A non-limiting example of such a FLAP binding assay is as follows:
Packed human polymorphonuclear cell pellets (1.8×10^9 cells) (Biological Speciality Corporation) were resuspended, lysed and 100,000 g membranes prepared as described (Charleson et al. Mol. Pharmacol, 41, 873-879, 1992). 100,000×g pelleted membranes were resuspended in Tris-Tween assay buffer (100 mM Tris HCl pH 7.4, 140 mM NaCl, 2 mM EDTA, 0.5 mM DTT, 5% glycerol, 0.05% Tween 20) to yield a protein concentration of 50-100 μg/mL. 10 μL membrane suspension was added to 96 well Millipore plate, 78 μL Tris-Tween buffer, 10 μL ^3H MK886 or ^3H 3-[5-(pyrid-2-ylmethoxy)-3-tert-butylthio-1-benzyl-indol-2-yl]-2,2-dimethylpropionic acid (or ^125I MK591 derivative Eggler et al, J. Labelled Compounds and Radiopharmaceuticals, 1994, vXXXIV, 1147)) to 30,000 cpm, 2 μL, inhibitor and incubated for 30 minutes at room temperature. 100 μL ice-cold washed buffer was added to the incubation mixture. Plates were then filtered and washed 3× with 200 μL ice cold Tris-Tween buffer, scintillation bottoms sealed, 100 μL scintillant added, shaken for 15 minutes then counted in a TopCount. Specific binding was determined as defined as total radioactive binding minus non-specific binding in the presence of 10 μM MK886. IC50s were determined using Graphpad prism analysis of drug titration curves.
`CSc1c(C(Cc2ccccc2)C(=O)O)n(C)c2ccc(OCc3ccccn3)cc12` (stereo not shown) [Example 9, 2-[1-Methyl-3-methylsulfanyl-5-(pyridin-2-ylmethoxy)-1H-indol-2-yl]-3-phenyl-propionic acid]: the pIC50 was 4.00 to 5.00. The value for `Cc1cnc(COc2ccc3c(c2)c(SC(C)(C)C)c(C(Cc2cnc(C)cn2)C(=O)O)n3C)cn1` (stereo not shown) [Example 37, 2-[3-tert-Butylsulfanyl-1-methyl-5-(5-methyl-pyrazin-2-ylmethoxy)-1H-indol-2-yl]-3-(5-methyl-pyrazin-2-yl)-propionic acid] was 3.60 to 4.00; that for `CCS(=O)(=O)c1c(C(Cc2ccccc2)C(=O)O)n(C)c2ccc(OCc3ccccn3)cc12` (stereo not shown) [Example 11, 2-[3-Ethanesulfonyl-1-methyl-5-(pyridin-2-ylmethoxy)-1H-indol-2-yl]-3-phenyl-propionic acid] was 4.00 to 5.00. The value for `Cn1c(C(Cc2ccccc2)C(=O)O)c(S(C)(=O)=O)c2cc(OCc3ccccn3)ccc21` (stereo not shown) [Example 10, 2-[3-Methanesulfonyl-1-methyl-5-(pyridin-2-ylmethoxy)-1H-indol-2-yl]-3-phenyl-propionic acid] was 4.00 to 5.00.

The values above are taken from patent publication US20100298343A1, “5-LIPOXYGENASE-ACTIVATING PROTEIN (FLAP) INHIBITORS” (priority 2007, published 2010).
